Assay results: patent US10766928B2, “Targeted conformationally-constrained kinked endosomal disrupting peptides” (priority 2012, dated 2020)
≈ marks a conversion by molar mass, not a printed value. Where two headings read alike, the source gives them in different places. Non-standard residues stand in square brackets, D forms with d. Residues, ends and D or L forms follow the SMILES beside them. Aib = CC(C)(N)C(=O)O

Experiments:
[1] = Thermodynamic solubility in PBS (pH 7.4); format: physicochemical; settings: phosphate buffered saline
From the text: Values in parentheses represent 95% confidence intervals. N.D., not determined.
Measurements represent duplicate or more replicates, with active peptides subjected to multiple replicates. ND: not determined. The peptide was non-toxic and soluble in cell culture medium at this concentration.

[2] = system: endosomes of Jurkat lymphocytes; assay: Endosome disruption in Jurkat lymphocytes: release of carboxyfluorescein from disulfide probe Compound 2, flow cytometry; settings: for Efficacy (% of 1): % of the effect of compound 1, calculated span of dose-response curve, ± standard deviation; for EC50: Jurkat lymphocytes
How it was run: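 Human Jurkat cells treated with compounds plus disulfide probe Compound 2 (2.5 μM) for 14 h at 37 °C. Cytoplasmic release of pH-sensitive fluorophore Compound 3 quantified by flow cytometry. IC50 by non-linear regression; efficacy as % fluorescence change relative to Compound 1 maximum (100%).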

[3] = system: Jurkat lymphocytes; settings: read-out: Toxicity; Table 3; IC50, Jurkat, 48 h at 37° C.; footnote a: non-toxic and soluble in cell culture medium at this concentration
[4] = pH 7.4, Table 3, PBS pH 7.4, 24 h at 22° C., read-out: Solubility
[5] = read-out: Potency, Table 2, EC50 ± standard deviation, disulfide-linked fluorescent probe (2.5 μM), 14 h

## CC(C)[C@H](NC(=O)[C@@H](NC(=O)[C@@H]1CCCN1C(=O)[C@@H]1CCCN1C(=O)[C@H](Cc1ccc(O)cc1)NC(=O)[C@H](Cc1c[nH]c2ccccc12)NC(=O)[C@H](C)NC(=O)[C@H](Cc1ccc(O)cc1)NC(=O)[C@H](Cc1c[nH]c2ccccc12)NC(=O)[C@H](C)NC(=O)[C@H](Cc1ccc(O)cc1)NC(=O)[C@H](Cc1c[nH]c2ccccc12)NC(=O)C(C)(C)NC(=O)C(C)(C)NC(=O)C(C)(C)NC(=O)C(C)(C)N)C(C)C)C(N)=O [Compound 80] (H-[Aib][Aib][Aib][Aib]WYAWYAWYPPVV-NH2)
[1]; [4]
  solubility thermodynamic at 24 h: 5 ± 2 µM (≈ 9.7 µg/mL)
[2]; Table 2, Jurkat, 14 h
  Efficacy (% of 1): 113 ± 4%
[2]; [5]
  EC50: 0.28 ± 0.1 µM
[3]
  IC50: > 16 µM

## CC(=O)NC(C)(C)C(=O)NC(C)(C)C(=O)NC(C)(C)C(=O)NC(C)(C)C(=O)N[C@@H](Cc1c[nH]c2ccccc12)C(=O)N[C@@H](Cc1ccc(O)cc1)C(=O)N[C@@H](C)C(=O)N[C@@H](Cc1c[nH]c2ccccc12)C(=O)N[C@@H](Cc1ccc(O)cc1)C(=O)N[C@@H](C)C(=O)N[C@@H](Cc1c[nH]c2ccccc12)C(=O)N[C@@H](Cc1ccc(O)cc1)C(=O)N1CCC[C@H]1C(=O)N1CCC[C@H]1C(=O)N[C@H](C(=O)N[C@H](C(N)=O)C(C)C)C(C)C [Compound 82] (Ac-[Aib][Aib][Aib][Aib]WYAWYAWYPPVV-NH2)
[1]; [4]
  solubility thermodynamic at 24 h: 2 ± 1 µM (≈ 3.96 µg/mL)
[2]; Table 2, Jurkat, 14 h
  Efficacy (% of 1): 85 ± 7%
[2]; [5]
  EC50: 0.8 ± 0.2 µM
[3]
  IC50: > 16 µM

## CC(C)[C@H](NC(=O)[C@@H](NC(=O)[C@@H]1CCCN1C(=O)[C@@H]1CCCN1C(=O)[C@H](Cc1c[nH]c2ccccc12)NC(=O)[C@H](Cc1ccc(O)cc1)NC(=O)[C@H](C)NC(=O)[C@H](Cc1c[nH]c2ccccc12)NC(=O)[C@H](Cc1c[nH]c2ccccc12)NC(=O)C(C)(C)NC(=O)C(C)(C)NC(=O)C(C)(C)NC(=O)C(C)(C)N)C(C)C)C(N)=O [Compound 44] (H-[Aib][Aib][Aib][Aib]WWAYWPPVV-NH2)
[1]; pH 7.4, Table 1, PBS pH 7.4, 24 hours at 22° C., ±S.D., read-out: Solubility (aq.)
  solubility thermodynamic at 24 h: 22 ± 1 µM (≈ 33.9 µg/mL)
[1]; [4]
  solubility thermodynamic at 24 h: 22 ± 1 µM (≈ 33.9 µg/mL)
[2]; Table 1, % change in cellular fluorescence relative to maximal response of Compound 1 (100%), Jurkat, 14 hours
  Efficacy (% of max. 1): 97%
[2]; Table 2, Jurkat, 14 h
  Efficacy (% of 1): 98 ± 2%
[2]; read-out: Potency (EC50), Table 1, probe Compound 2 (2.5 μM), 14 hours, 95% confidence interval in neighbouring cell
  EC50: 5.2 µM
[2]; [5]
  EC50: 5 ± 1 µM
[3]
  IC50: > 16 µM
